According to patent US4642332A, “Effective hormonal peptides: D-3-Pal^6 -LHRH” (The Board of Regents, The University of Texas System, priority 1985, dated 1987):

What was measured:
[1] = test system: pituitary cells from 21 day old rats; experiment: In vitro pituitary incubate assay (release of LH and FSH); format: cell-based, rat; details: for FSH released into medium (ng/ml) ± SEM / LH ng/ml medium ± SEM / FSH ng/ml medium ± SEM: mean of 9
Procedure: The data in Tables IV and V are from the in vitro assay of the peptides with the pituitary incubate. This assay measures the release of LH and FSH in an in vitro system with pituitary cells from 21 day old rats. See, Bowers, C. Y. et al. on the inhibitory effects of leutinizing hormone releasing hormone analogs. Endocrinology, 106: 674 (1980).
The abbreviations are as follows: sc-subcutaneous, SEM-standard error of the mean; NS-not significant; ng-nanogram, and ml-milliliter. The p value represents the population coefficient .rho.(rho) which signifies whether a sample coefficient is significant or a chance deviation from zero.

21 day old female rats = experiment: In vivo assay in rats for release of LH and FSH; set-up: species or system rat; details: for Serum FSH ng/ml SEM / Serum LH ng/ml SEM: Table IX, blood sample at ±60 minutes; for Serum FSH ng/ml SEM / Serum LH ng/ml SEM / FSH ng/ml Serum ± SEM at +120 min / LH ng/ml Serum ± SEM at +120 min: mean of 6; for +2 hrs LH ± SEM ng/ml serum / FSH ± SEM ng/ml serum (+2 hrs) / +3 hrs LH ± SEM ng/ml serum / FSH ± SEM ng/ml serum (+3 hrs): Table XI, mean 5-6; for FSH ng/ml Serum ± SEM at +120 min / LH ng/ml Serum ± SEM at +120 min: Table X
Procedure: In vivo rat assay performed by a modification of the method of Bowers, C. Y. et al. Endocrinology, 106, 674 (1980). 21 day old female rats were injected sc with saline or peptide. Blood samples for the RIAs of LH and FSH were collected at +15, +60, +120, or +180 minutes. (Tables VI-XI).

[2] = Table IV, dosage 0.03 ng/ml medium
[3] = Table IV, dosage 0.1 ng/ml medium
[4] = Table IV, dosage 0.3 ng/ml medium
[5] = Table IV, dosage 1.0 ng/ml medium
[6] = Table V, dosage .03 ng/ml medium
[7] = Table V, dosage .10 ng/ml medium
[8] = Table V, dosage .30 ng/ml medium
[9] = Table VI, 15 ng/rat sc, mean of 9
[10] = Table VI, 50 ng/rat sc, mean of 9
[11] = Table VI, 150 ng/rat sc, mean of 9
[12] = Table VIII first section (time not given), 15 ng/rat sc, mean of 5-6
[13] = Table VIII first section (time not given), 50 ng/rat sc, mean of 5-6
[14] = Table VIII first section (time not given), 150 ng/rat sc, mean of 5-6
[15] = Table VIII, ±60 min after injection, 150 ng/rat sc, mean of 5-6
[16] = at 0.1 ng, statement on Table IV
[17] = Table VI, 1.75 ng/rat sc, mean of 9
[18] = Table VI, 5 ng/rat sc, mean of 9
[19] = Table VIII, ±60 min after injection, 15 ng/rat sc, mean of 5-6

LHRH: peptide hormone known as the leutinizing hormone releasing hormone, exists naturally in the hypothalamus
FSH released into medium (ng/ml) ± SEM [1, 2]: 638 ± 292 | LH ng/ml medium ± SEM [1, 2]: 52 ± 20 ng/mL | FSH released into medium (ng/ml) ± SEM [1, 3]: 266 ± 235 | LH ng/ml medium ± SEM [1, 3]: 214 ± 30 ng/mL | FSH released into medium (ng/ml) ± SEM [1, 4]: 4556 ± 752 | LH ng/ml medium ± SEM [1, 4]: 771 ± 162 ng/mL | FSH released into medium (ng/ml) ± SEM [1, 5]: 8063 ± 943 | LH ng/ml medium ± SEM [1, 5]: 1434 ± 156 ng/mL | FSH ng/ml medium ± SEM [1, 6]: 598 ± 137 ng/mL | LH ng/ml medium ± SEM [1, 6]: 33 ± 24 ng/mL | FSH ng/ml medium ± SEM [1, 7]: 794 ± 52 ng/mL | LH ng/ml medium ± SEM [1, 7]: 206 ± 42 ng/mL | FSH ng/ml medium ± SEM [1, 8]: 2709 ± 252 ng/mL | LH ng/ml medium ± SEM [1, 8]: 892 ± 92 ng/mL | Serum FSH ng/ml SEM (21 day old female rats; 50 ng/rat sc): 909 ± 118 ng/mL | Serum LH ng/ml SEM (21 day old female rats; 50 ng/rat sc): 5 ± 0.5 ng/mL | Serum FSH ng/ml SEM (21 day old female rats; 150 ng/rat sc): 1076 ± 185 ng/mL | Serum LH ng/ml SEM (21 day old female rats; 150 ng/rat sc): 17 ± 3 ng/mL | Serum FFSH ng/ml ± SEM (21 day old female rats; [9]): 475 ± 43 ng/mL | Serum LH ng/ml ± SEM (21 day old female rats; [9]): 1.3 ± 0.2 ng/mL | Serum FFSH ng/ml ± SEM (21 day old female rats; [10]): 572 ± 68 ng/mL | Serum LH ng/ml ± SEM (21 day old female rats; [10]): 3.2 ± 0.3 ng/mL | Serum FFSH ng/ml ± SEM (21 day old female rats; [11]): 839 ± 73 ng/mL | Serum LH ng/ml ± SEM (21 day old female rats; [11]): 12 ± 3 ng/mL | LH ng/ml Serum ± SEM ± 15 min (21 day old female rats; Table VII, dosage 100 mg/rat sc (so in the source), ± 15 min): 49 ± 10 ng/mL | LH ng/ml Serum ± SEM ± 60 min (21 day old female rats; Table VII, dosage 100 mg/rat sc (so in the source), ± 60 min): 5.5 ± 0.9 ng/mL | Serum FSH ng/ml ± SEM (21 day old female rats; [12]): 1147 ± 489 ng/mL | Serum LH ng/ml ± SEM (21 day old female rats; [12]): 21.0 ± 4.0 ng/mL | Serum FSH ng/ml ± SEM (21 day old female rats; [13]): 2228 ± 448 ng/mL | Serum LH ng/ml ± SEM (21 day old female rats; [13]): 53.9 ± 9.0 ng/mL | Serum FSH ng/ml ± SEM (21 day old female rats; [14]): 1536 ± 172 ng/mL | Serum LH ng/ml ± SEM (21 day old female rats; [14]): 62.0 ± 21.0 ng/mL | Serum FSH ng/ml ± SEM (21 day old female rats; [15]): 2448 ± 209 ng/mL | Serum LH ng/ml ± SEM (21 day old female rats; [15]): 39.0 ± 17 ng/mL | +2 hrs LH ± SEM ng/ml serum (21 day old female rats; 150 ng sc): .18 ± 0.07 ng/mL | FSH ± SEM ng/ml serum (+2 hrs) (21 day old female rats; 150 ng sc): 337 ± 20 ng/mL | +3 hrs LH ± SEM ng/ml serum (21 day old female rats; 150 ng sc): 0.66 ± 0.46 ng/mL | FSH ± SEM ng/ml serum (+3 hrs) (21 day old female rats; 150 ng sc): 487 ± 72 ng/mL | FSH released (21 day old female rats; dosage of 15 ng): 572 ± 68 ng | release of LH (in words) (21 day old female rats; dosage of 15 ng): inactive

CC(C)C[C@H](NC(=O)[C@@H](Cc1cccnc1)NC(=O)[C@H](Cc1ccc(O)cc1)NC(=O)[C@H](CO)NC(=O)[C@H](Cc1c[nH]c2ccccc12)NC(=O)[C@H](Cc1c[nH]cn1)NC(=O)[C@@H]1CCC(=O)N1)C(=O)N[C@@H](CCCNC(=N)N)C(=O)N1CCC[C@H]1C(=O)NCC(N)=O [D-Pal^6 -LHRH, pyroGlu-His-Trp-Ser-Tyr-D-3-Pal-Leu-Arg-Pro-GlyNH2]
FSH released into medium (ng/ml) ± SEM [1, 2]: 1062 ± 394 | LH ng/ml medium ± SEM [1, 2]: 73 ± 10 ng/mL | FSH released into medium (ng/ml) ± SEM [1, 3]: 3109 ± 486 | LH ng/ml medium ± SEM [1, 3]: 345 ± 72 ng/mL | FSH released into medium (ng/ml) ± SEM [1, 4]: 5126 ± 967 | LH ng/ml medium ± SEM [1, 4]: 811 ± 182 ng/mL | FSH released into medium (ng/ml) ± SEM [1, 5]: 9637 ± 1490 | LH ng/ml medium ± SEM [1, 5]: 1439 ± 233 ng/mL | activity for the release of LH, D-Pal^6 -LHRH compared with D-Qal^6 -LHRH [1, 16]: essentially equivalent | release of FSH, D-Pal^6 -LHRH compared with D-Qal^6 -LHRH [1, 16]: same essential equivalents | potency, D-Pal^6 -LHRH compared with D-Trp^6 -LHRH ([1]; inferred from equivalence with D-Qal^6 -LHRH): essentially equipotent | Serum FSH ng/ml SEM (21 day old female rats; 50 ng/rat sc): 3099 ± 361 ng/mL | Serum LH ng/ml SEM (21 day old female rats; 50 ng/rat sc): 120 ± 16 ng/mL | Serum FSH ng/ml SEM (21 day old female rats; 150 ng/rat sc): 3064 ± 677 ng/mL | Serum LH ng/ml SEM (21 day old female rats; 150 ng/rat sc): 122 ± 19 ng/mL | Serum FFSH ng/ml ± SEM (21 day old female rats; [17]): 471 ± 128 ng/mL | Serum LH ng/ml ± SEM (21 day old female rats; [17]): 1.5 ± 0.3 ng/mL | Serum FFSH ng/ml ± SEM (21 day old female rats; [18]): 738 ± 71 ng/mL | Serum LH ng/ml ± SEM (21 day old female rats; [18]): 7 ± 1 ng/mL | Serum FFSH ng/ml ± SEM (21 day old female rats; [9]): 1270 ± 140 ng/mL | Serum LH ng/ml ± SEM (21 day old female rats; [9]): 43 ± 7 ng/mL | Serum FFSH ng/ml ± SEM (21 day old female rats; [10]): 2267 ± 342 ng/mL | Serum LH ng/ml ± SEM (21 day old female rats; [10]): 103 ± 8 ng/mL | Serum FSH ng/ml ± SEM (21 day old female rats; [12]): 1711 ± 644 ng/mL | Serum LH ng/ml ± SEM (21 day old female rats; [12]): 36 ± 9 ng/mL | Serum FSH ng/ml ± SEM (21 day old female rats; [14]): 1591 ± 588 ng/mL | Serum LH ng/ml ± SEM (21 day old female rats; [14]): 111 ± 16 ng/mL | Serum FSH ng/ml ± SEM (21 day old female rats; [19]): 1992 ± 379 ng/mL | Serum LH ng/ml ± SEM (21 day old female rats; [19]): 81.0 ± 17 ng/mL | Serum FSH ng/ml ± SEM (21 day old female rats; [15]): 6432 ± 2216 ng/mL | Serum LH ng/ml ± SEM (21 day old female rats; [15]): 106.0 ± 3 ng/mL | FSH ng/ml Serum ± SEM at +120 min (21 day old female rats; 50 ng/rat sc): 3251 ± 485 ng/mL | LH ng/ml Serum ± SEM at +120 min (21 day old female rats; 50 ng/rat sc): 111 ± 26 ng/mL | FSH ng/ml Serum ± SEM at +120 min (21 day old female rats; 150 ng/rat sc): 5293 ± 686 ng/mL | LH ng/ml Serum ± SEM at +120 min (21 day old female rats; 150 ng/rat sc): 216 ± 46 ng/mL | +2 hrs LH ± SEM ng/ml serum (21 day old female rats; 50 ng sc): 108 ± 17 ng/mL | FSH ± SEM ng/ml serum (+2 hrs) (21 day old female rats; 50 ng sc): 1727 ± 222 ng/mL | +3 hrs LH ± SEM ng/ml serum (21 day old female rats; 50 ng sc): 20 ± 2.3 ng/mL | FSH ± SEM ng/ml serum (+3 hrs) (21 day old female rats; 50 ng sc): 1312 ± 163 ng/mL | +2 hrs LH ± SEM ng/ml serum (21 day old female rats; 150 ng sc): 144 ± 27 ng/mL | FSH ± SEM ng/ml serum (+2 hrs) (21 day old female rats; 150 ng sc): 2362 ± 293 ng/mL | +3 hrs LH ± SEM ng/ml serum (21 day old female rats; 150 ng sc): 38 ± 6.3 ng/mL | FSH ± SEM ng/ml serum (+3 hrs) (21 day old female rats; 150 ng sc): 1617 ± 143 ng/mL | release of LH (in words) (21 day old female rats; dosage of 5 ng): significantly released LH | FSH released (21 day old female rats; dosage of 15 ng): 1270 ± 140 ng | LH released relative to LHRH (21 day old female rats; dosage of 50 ng, corrected for the level of LH before addition of the peptides): ~50 times | potency compared with LHRH when tested biologically (21 day old female rats; summary statement, test not specified): significantly more potent than LHRH itself
